# What was measured:
# Zymoseptoria tritici = assay: Test E: wheat leaf blotch, preventive spray on wheat seedlings; details: 10 ppm; wheat leaf blotch; 100 = 100% disease control, 0 = no control
# [1] = test system: Puccinia recondita f sp. tritici; assay: Test F: wheat leaf rust, preventive spray on wheat seedlings; details: 10 ppm; wheat leaf rust; 100 = 100% disease control, 0 = no control
# Excerpt: (§1) General protocol for preparing test solutions for Tests A-G: the test compounds were first dissolved in acetone in an amount equal to 3% of the final volume and then suspended at the desired concentration (in ppm) in acetone and purified water (50/50 mix by volume) containing 250 ppm of the surfactant PEG400 (polyhydric alcohol esters). The resulting test suspensions were then used in Tests A-G. Compounds were sprayed at a concentration of 50 ppm (*) or 10 ppm to the point of run-off on the test plants, the equivalent of a rate of 200 g/ha or 40 g/ha, respectively.
# The test solution was sprayed to the point of run-off on wheat seedlings. The following day the seedlings were inoculated with a spore suspension of Puccinia recondita f sp. tritici; (the causal agent of wheat leaf rust) and incubated in a saturated atmosphere at 20° C. for 24 h, and then moved to a growth chamber at 20° C. for 6 days, after which time visual disease ratings were made.
# A dash (-) indicates no test results. Compounds with an asterisks (*) were applied at a concentration of 50 ppm, otherwise test solutions were applied at 10 ppm.
# Botrytis cinerea = assay: Test B: gray mold, preventive spray on tomato seedlings; details: 10 ppm; gray mold on tomato; 100 = 100% disease control, 0 = no control
# Stagonospora nodorum = assay: Test D: wheat glume blotch, preventive spray on wheat seedlings; details: 10 ppm; wheat glume blotch; 100 = 100% disease control, 0 = no control
# Excerpt: as §1
# The test solution was sprayed to the point of run-off on wheat seedlings. The following day the seedlings were inoculated with a spore suspension of Stagonospora nodorum (also known as Septoria nodorum; the causal agent of wheat glume blotch) and incubated in a saturated atmosphere at 20° C. for 48 h, and then moved to a growth chamber at 20° C. for 6 days, after which time visual disease ratings were made.
# Compounds with an asterisks (*) were applied at a concentration of 50 ppm, otherwise test solutions were applied at 10 ppm.
# [2] = test system: Erysiphe graminis f sp. tritici; assay: Test G: wheat powdery mildew, preventive spray on wheat seedlings; details: 10 ppm; wheat powdery mildew; 100 = 100% disease control, 0 = no control
SMILES,Test E rating (% disease control) (Zymoseptoria tritici) [%],Test F rating (% disease control) [1] [%],Test B rating (% disease control) (Botrytis cinerea) [%],Test D rating (% disease control) (Stagonospora nodorum) [%],Test G rating (% disease control) [2] [%]
"CC(C)(C)C(O)(Cn1cncn1)C1=NOC(CCc2ccc(C(F)(F)F)cc2)C1 (single isomer, unassigned) [Compound 14]",4,100,0,88,99
"OC(Cn1cncn1)(C1=NOC(c2ccc(Cl)cc2)C1)c1ccc(Cl)cc1Cl (single isomer, unassigned) [Compound 140]",67,100,0,82,99
"C[S+]([O-])c1ccc(C2CC(C(O)(Cn3cncn3)c3ccc(Cl)cc3)=NO2)cc1 (single isomer, unassigned) [Compound 112]",80,65,0,0,69
"CC(C)(C)C(O)(Cn1cncn1)C1=NOC(COc2ccc(Cl)nc2)C1 (single isomer, unassigned) [Compound 97]",0,98,0,99,94
"CC(C)(C)C(O)(Cn1cncn1)C1=NOC(COc2ccc(F)cc2)C1 (single isomer, unassigned) [Compound 80]",1,100,82,100,99
"CC(C)(C)C(O)(Cn1cncn1)C1=NOC(CO[Si](C)(C)C(C)(C)C)C1 (single isomer, unassigned) [Compound 9]",0,0,0,0,64
"OC(Cn1cncn1)(C1=NOC(COc2ccc(Cl)nc2)C1)c1ccc(Cl)cc1 (single isomer, unassigned) [Compound 101]",0,100,0,0,99
"CC(C)(C)CC1CC(C(O)(Cn2cncn2)C(C)(C)C)=NO1 (single isomer, unassigned) [Compound 78]",0,0,0,0,0
"OC(Cn1cncn1)(C1=NOC(c2ccc(Cl)cc2)C1)c1ccc(C(F)(F)F)cc1 (single isomer, unassigned) [Compound 106]",0,72,0,0,89
"CC(C)(C)C(O)(Cn1cncn1)C1=NOC(CSc2ccc(Cl)cc2)C1 (single isomer, unassigned) [Compound 26]",0,74,92,70,89
"OC(Cn1cncn1)(C1=NOC(c2ccc(C(F)(F)F)cc2)C1)c1ccc(Cl)cc1 (single isomer, unassigned) [Compound 147]",17,100,0,73,90
OC(Cn1cncn1)(C1=NOC(c2ccc(Cl)cc2)C1)c1ccc(Oc2ccccc2)cc1 (mixture of isomers) [Compound 152],34,50,0,0,87
"OC(Cn1cncn1)(C1=NOC(COCc2ccccc2)C1)c1ccc(Cl)cc1 (single isomer, unassigned) [Compound 57]",0,97,0,0,97
"CC(C)(C)C(O)(Cn1cncn1)C1=NOC(COc2ncc(Cl)cn2)C1 (single isomer, unassigned) [Compound 99]",0,95,0,63,96
"OC(Cn1cncn1)(C1=NOC(COc2ccc(F)cc2)C1)c1ccc(Cl)cc1 (single isomer, unassigned) [Compound 163]",0,99,0,0,86
"CCC(C)(C)C(O)(Cn1cncn1)C1=NOC(Cc2ccc(C(F)(F)F)cc2)C1 (single isomer, unassigned) [Compound 20]",98,100,0,65,99
"OC(Cn1cncn1)(C1=NOC(c2ccc(-n3ccc(C(F)(F)F)n3)cc2)C1)c1ccc(Cl)cc1 (single isomer, unassigned) [Compound 149]",38,36,0,0,76
"OC(Cn1cncn1)(C1=NOC(c2ccc(Cl)cc2)C1)c1ccc(F)cc1 (single isomer, unassigned) [Compound 161]",0,28,0,0,94
"OC(Cn1cncn1)(C1=NOC(c2ccc(Cl)cc2)C1)c1ccccc1Cl (single isomer, unassigned) [Compound 150]",42,100,0,100,99
"OC(Cn1cncn1)(C1=NOC(COc2ccc(OCc3ccccc3)cc2)C1)c1ccc(Cl)cc1 (single isomer, unassigned) [Compound 70]",0,9,28,47,76
"OC(Cn1cncn1)(C1=NOC(Cc2ccc(C(F)(F)F)cc2)C1)c1ccc(Cl)cc1 (single isomer, unassigned) [Compound 202]",21,100,0,59,99
"OC(Cn1cncn1)(C1=NOC(Cc2ccc(Br)cc2)C1)c1ccc(Cl)cc1 (single isomer, unassigned) [Compound 54]",0,100,0,87,99
